In PMC4676015, “Variant fatty acid-like molecules Conjugation, novel approaches for extending the stability of therapeutic peptides” (Scientific Reports, 2015):

molecular target: T1, GLP-1 receptor (GLP-1R) (Rattus norvegicus, UniProt P32301); experiment: GLP-1 receptor binding assay (cellular ELISA); details: not given
T1 construct: endogenous in cells; host or cells: rat INS-1 cells
T1 sequence (P32301 22-463): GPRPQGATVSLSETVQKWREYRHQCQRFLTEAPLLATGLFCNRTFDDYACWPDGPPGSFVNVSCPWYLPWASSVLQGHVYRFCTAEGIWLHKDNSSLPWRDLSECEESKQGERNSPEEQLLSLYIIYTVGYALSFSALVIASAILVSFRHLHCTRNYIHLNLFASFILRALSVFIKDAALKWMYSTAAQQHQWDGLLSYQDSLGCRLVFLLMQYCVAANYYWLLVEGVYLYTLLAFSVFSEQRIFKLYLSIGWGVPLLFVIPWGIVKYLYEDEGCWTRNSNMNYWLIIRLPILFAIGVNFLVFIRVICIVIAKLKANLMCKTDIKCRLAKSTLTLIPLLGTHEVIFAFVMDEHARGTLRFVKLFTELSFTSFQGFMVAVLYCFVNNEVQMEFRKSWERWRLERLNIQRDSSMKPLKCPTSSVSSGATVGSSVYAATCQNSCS
Procedure: Cells were rinsed with PBS and fixed with 4% paraformaldehyde (Thermo Scientific) for 10 min at room temperature and quenched for 5 min with 2% glycine in PBS, pH 7.5. […] After a 2 h incubation at 37 °C in a final volume of 100 μl, the excess peptides were washed, and the cells were blocked with 5% BSA (BD Biosciences). […] Colorimetric changes were analyzed by reading the absorbance at 450 nm in a SpectraMax M5 (Molecular Device) microplate reader. The peptide concentration was plotted against UV absorbance, and the Kd was calculated using Origin 7.0 software.

Structure (SMILES) | Kd
CCCCCCCCCCCCNC(=O)CC[C@H](NC(=O)[C@H](C)NC(=O)[C@@H](N)Cc1c[nH]cn1)C(=O)NCC(=O)N[C@H](C(=O)N[C@@H](Cc1ccccc1)C(=O)N[C@H](C(=O)N[C@@H](CO)C(=O)N[C@@H](CC(=O)O)C(=O)N[C@H](C(=O)N[C@@H](CO)C(=O)N[C@@H](CO)C(=O)N[C@@H](Cc1ccc(O)cc1)C(=O)N[C@@H](CC(C)C)C(=O)N[C@@H](CCC(=O)O)C(=O)NCC(=O)N[C@@H](CCC(N)=O)C(=O)N[C@@H](C)C(=O)N[C@@H](C)C(=O)N[C@@H](CCCCN)C(=O)N[C@@H](CCC(=O)O)C(=O)N[C@@H](Cc1ccccc1)C(=O)N[C@H](C(=O)N[C@@H](C)C(=O)N[C@@H](Cc1c[nH]c2ccccc12)C(=O)N[C@@H](CC(C)C)C(=O)N[C@H](C(=O)N[C@@H](CCCCN)C(=O)NCC(=O)N[C@@H](CCCNC(=N)N)C(=O)NCC(=O)O)C(C)C)[C@@H](C)CC)C(C)C)[C@@H](C)O)[C@@H](C)O [compound 8] | 0.0967 ± 0.00295 µM
CCCCCCCCCCCC(=O)NCCCC[C@H](NC(=O)[C@@H](NC(=O)[C@H](CC(C)C)NC(=O)[C@H](Cc1c[nH]c2ccccc12)NC(=O)[C@H](C)NC(=O)[C@@H](NC(=O)[C@H](Cc1ccccc1)NC(=O)[C@H](CCC(=O)O)NC(=O)[C@H](CCCCN)NC(=O)[C@H](C)NC(=O)[C@H](C)NC(=O)[C@H](CCC(N)=O)NC(=O)CNC(=O)[C@H](CCC(=O)O)NC(=O)[C@H](CC(C)C)NC(=O)[C@H](Cc1ccc(O)cc1)NC(=O)[C@H](CO)NC(=O)[C@H](CO)NC(=O)[C@@H](NC(=O)[C@H](CC(=O)O)NC(=O)[C@H](CO)NC(=O)[C@@H](NC(=O)[C@H](Cc1ccccc1)NC(=O)[C@@H](NC(=O)CNC(=O)[C@H](CCC(=O)O)NC(=O)[C@H](C)NC(=O)[C@@H](N)Cc1c[nH]cn1)[C@@H](C)O)[C@@H](C)O)C(C)C)[C@@H](C)CC)C(C)C)C(=O)NCC(=O)N[C@@H](CCCNC(=N)N)C(=O)NCC(=O)O [compound 5] | 0.0143 ± 0.0011 µM
CCCCCCCC(=O)NCCCC[C@H](NC(=O)[C@@H](NC(=O)[C@H](CC(C)C)NC(=O)[C@H](Cc1c[nH]c2ccccc12)NC(=O)[C@H](C)NC(=O)[C@@H](NC(=O)[C@H](Cc1ccccc1)NC(=O)[C@H](CCC(=O)O)NC(=O)[C@H](CCCCN)NC(=O)[C@H](C)NC(=O)[C@H](C)NC(=O)[C@H](CCC(N)=O)NC(=O)CNC(=O)[C@H](CCC(=O)O)NC(=O)[C@H](CC(C)C)NC(=O)[C@H](Cc1ccc(O)cc1)NC(=O)[C@H](CO)NC(=O)[C@H](CO)NC(=O)[C@@H](NC(=O)[C@H](CC(=O)O)NC(=O)[C@H](CO)NC(=O)[C@@H](NC(=O)[C@H](Cc1ccccc1)NC(=O)[C@@H](NC(=O)CNC(=O)[C@H](CCC(=O)O)NC(=O)[C@H](C)NC(=O)[C@@H](N)Cc1c[nH]cn1)[C@@H](C)O)[C@@H](C)O)C(C)C)[C@@H](C)CC)C(C)C)C(=O)NCC(=O)N[C@@H](CCCNC(=N)N)C(=O)NCC(=O)O [compound 4] | 0.0154 ± 0.00067 µM
CCCCCCCCCCCCNC(=O)C[C@H](NC(=O)[C@H](CO)NC(=O)[C@@H](NC(=O)[C@H](Cc1ccccc1)NC(=O)[C@@H](NC(=O)CNC(=O)[C@H](CCC(=O)O)NC(=O)[C@H](C)NC(=O)[C@@H](N)Cc1c[nH]cn1)[C@@H](C)O)[C@@H](C)O)C(=O)N[C@H](C(=O)N[C@@H](CO)C(=O)N[C@@H](CO)C(=O)N[C@@H](Cc1ccc(O)cc1)C(=O)N[C@@H](CC(C)C)C(=O)N[C@@H](CCC(=O)O)C(=O)NCC(=O)N[C@@H](CCC(N)=O)C(=O)N[C@@H](C)C(=O)N[C@@H](C)C(=O)N[C@@H](CCCCN)C(=O)N[C@@H](CCC(=O)O)C(=O)N[C@@H](Cc1ccccc1)C(=O)N[C@H](C(=O)N[C@@H](C)C(=O)N[C@@H](Cc1c[nH]c2ccccc12)C(=O)N[C@@H](CC(C)C)C(=O)N[C@H](C(=O)N[C@@H](CCCCN)C(=O)NCC(=O)N[C@@H](CCCNC(=N)N)C(=O)NCC(=O)O)C(C)C)[C@@H](C)CC)C(C)C [compound 11] | 0.0974 ± 0.00211 µM
CCCCCCCCCCCCCCCCNC(=O)CC[C@H](NC(=O)[C@H](C)NC(=O)[C@@H](N)Cc1c[nH]cn1)C(=O)NCC(=O)N[C@H](C(=O)N[C@@H](Cc1ccccc1)C(=O)N[C@H](C(=O)N[C@@H](CO)C(=O)N[C@@H](CC(=O)O)C(=O)N[C@H](C(=O)N[C@@H](CO)C(=O)N[C@@H](CO)C(=O)N[C@@H](Cc1ccc(O)cc1)C(=O)N[C@@H](CC(C)C)C(=O)N[C@@H](CCC(=O)O)C(=O)NCC(=O)N[C@@H](CCC(N)=O)C(=O)N[C@@H](C)C(=O)N[C@@H](C)C(=O)N[C@@H](CCCCN)C(=O)N[C@@H](CCC(=O)O)C(=O)N[C@@H](Cc1ccccc1)C(=O)N[C@H](C(=O)N[C@@H](C)C(=O)N[C@@H](Cc1c[nH]c2ccccc12)C(=O)N[C@@H](CC(C)C)C(=O)N[C@H](C(=O)N[C@@H](CCCCN)C(=O)NCC(=O)N[C@@H](CCCNC(=N)N)C(=O)NCC(=O)O)C(C)C)[C@@H](C)CC)C(C)C)[C@@H](C)O)[C@@H](C)O [compound 9] | 0.09974 ± 0.00092 µM
CCCCCCCCNC(=O)CC[C@H](NC(=O)[C@H](C)NC(=O)[C@@H](N)Cc1c[nH]cn1)C(=O)NCC(=O)N[C@H](C(=O)N[C@@H](Cc1ccccc1)C(=O)N[C@H](C(=O)N[C@@H](CO)C(=O)N[C@@H](CC(=O)O)C(=O)N[C@H](C(=O)N[C@@H](CO)C(=O)N[C@@H](CO)C(=O)N[C@@H](Cc1ccc(O)cc1)C(=O)N[C@@H](CC(C)C)C(=O)N[C@@H](CCC(=O)O)C(=O)NCC(=O)N[C@@H](CCC(N)=O)C(=O)N[C@@H](C)C(=O)N[C@@H](C)C(=O)N[C@@H](CCCCN)C(=O)N[C@@H](CCC(=O)O)C(=O)N[C@@H](Cc1ccccc1)C(=O)N[C@H](C(=O)N[C@@H](C)C(=O)N[C@@H](Cc1c[nH]c2ccccc12)C(=O)N[C@@H](CC(C)C)C(=O)N[C@H](C(=O)N[C@@H](CCCCN)C(=O)NCC(=O)N[C@@H](CCCNC(=N)N)C(=O)NCC(=O)O)C(C)C)[C@@H](C)CC)C(C)C)[C@@H](C)O)[C@@H](C)O [compound 7] | 0.104 ± 0.00342 µM
CCCCCCCCCCCC(=O)NCCCC[C@H](NC(=O)[C@H](C)NC(=O)[C@H](C)NC(=O)[C@H](CCC(N)=O)NC(=O)CNC(=O)[C@H](CCC(=O)O)NC(=O)[C@H](CC(C)C)NC(=O)[C@H](Cc1ccc(O)cc1)NC(=O)[C@H](CO)NC(=O)[C@H](CO)NC(=O)[C@@H](NC(=O)[C@H](CC(=O)O)NC(=O)[C@H](CO)NC(=O)[C@@H](NC(=O)[C@H](Cc1ccccc1)NC(=O)[C@@H](NC(=O)CNC(=O)[C@H](CCC(=O)O)NC(=O)[C@H](C)NC(=O)[C@@H](N)Cc1c[nH]cn1)[C@@H](C)O)[C@@H](C)O)C(C)C)C(=O)N[C@@H](CCC(=O)O)C(=O)N[C@@H](Cc1ccccc1)C(=O)N[C@H](C(=O)N[C@@H](C)C(=O)N[C@@H](Cc1c[nH]c2ccccc12)C(=O)N[C@@H](CC(C)C)C(=O)N[C@H](C(=O)N[C@@H](CCCCN)C(=O)NCC(=O)N[C@@H](CCCNC(=N)N)C(=O)NCC(=O)O)C(C)C)[C@@H](C)CC [compound 2] | 0.0399 ± 0.00127 µM
CCCCCCCC(=O)NCCCC[C@H](NC(=O)[C@H](C)NC(=O)[C@H](C)NC(=O)[C@H](CCC(N)=O)NC(=O)CNC(=O)[C@H](CCC(=O)O)NC(=O)[C@H](CC(C)C)NC(=O)[C@H](Cc1ccc(O)cc1)NC(=O)[C@H](CO)NC(=O)[C@H](CO)NC(=O)[C@@H](NC(=O)[C@H](CC(=O)O)NC(=O)[C@H](CO)NC(=O)[C@@H](NC(=O)[C@H](Cc1ccccc1)NC(=O)[C@@H](NC(=O)CNC(=O)[C@H](CCC(=O)O)NC(=O)[C@H](C)NC(=O)[C@@H](N)Cc1c[nH]cn1)[C@@H](C)O)[C@@H](C)O)C(C)C)C(=O)N[C@@H](CCC(=O)O)C(=O)N[C@@H](Cc1ccccc1)C(=O)N[C@H](C(=O)N[C@@H](C)C(=O)N[C@@H](Cc1c[nH]c2ccccc12)C(=O)N[C@@H](CC(C)C)C(=O)N[C@H](C(=O)N[C@@H](CCCCN)C(=O)NCC(=O)N[C@@H](CCCNC(=N)N)C(=O)NCC(=O)O)C(C)C)[C@@H](C)CC [compound 1] | 0.0362 ± 0.00095 µM

molecular target: T2, DPP IV enzyme (Homo sapiens, UniProt P27487); experiment: Stability against DPP IV proteolysis with or without HSA; format: in vitro ADME; details: DPP IV 0.1 mg/ml, 25 mM potassium phosphate, 25 mM KCl, 5 mM MgCl2, pH 7.0; 2% HSA; peptide 1 mg/ml; 37 °C, 24 h; GLP-1 (7–37) ELISA
T2 construct: purchased Sigma-Aldrich
T2 sequence (P27487 whole entry, species assumed): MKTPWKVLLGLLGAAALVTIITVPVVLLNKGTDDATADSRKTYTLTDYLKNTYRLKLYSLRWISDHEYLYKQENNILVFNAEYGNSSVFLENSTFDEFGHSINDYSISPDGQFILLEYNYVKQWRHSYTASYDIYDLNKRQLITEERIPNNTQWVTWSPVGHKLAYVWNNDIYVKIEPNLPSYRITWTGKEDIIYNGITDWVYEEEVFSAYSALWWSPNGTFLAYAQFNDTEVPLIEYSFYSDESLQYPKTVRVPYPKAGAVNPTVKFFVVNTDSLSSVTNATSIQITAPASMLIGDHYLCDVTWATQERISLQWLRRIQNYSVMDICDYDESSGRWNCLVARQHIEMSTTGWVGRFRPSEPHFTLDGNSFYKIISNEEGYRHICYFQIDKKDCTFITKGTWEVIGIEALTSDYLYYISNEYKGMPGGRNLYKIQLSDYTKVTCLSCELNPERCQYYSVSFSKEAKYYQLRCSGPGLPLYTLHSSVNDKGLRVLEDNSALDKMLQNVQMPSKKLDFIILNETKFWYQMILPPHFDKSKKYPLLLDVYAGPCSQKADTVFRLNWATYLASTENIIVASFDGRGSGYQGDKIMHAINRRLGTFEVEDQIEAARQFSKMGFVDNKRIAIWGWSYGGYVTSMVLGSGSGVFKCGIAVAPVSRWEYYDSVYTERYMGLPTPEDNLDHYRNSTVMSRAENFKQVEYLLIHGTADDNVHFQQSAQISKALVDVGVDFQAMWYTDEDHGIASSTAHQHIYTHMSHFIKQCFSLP
Procedure: DPP IV enzyme (0.1 mg/ml) was dissolved in 25 mM potassium phosphate buffer containing 25 mM potassium chloride and 5 mM magnesium chloride, pH 7.0.

Structure (SMILES) | degradation in DPP IV proteolysis compared with wild-type GLP-1, within 24 h
CCCCCCCCCCCCCCCCNC(=O)CC[C@H](NC(=O)[C@H](CC(C)C)NC(=O)[C@H](Cc1ccc(O)cc1)NC(=O)[C@H](CO)NC(=O)[C@H](CO)NC(=O)[C@@H](NC(=O)[C@H](CC(=O)O)NC(=O)[C@H](CO)NC(=O)[C@@H](NC(=O)[C@H](Cc1ccccc1)NC(=O)[C@@H](NC(=O)CNC(=O)[C@H](CCC(=O)O)NC(=O)[C@H](C)NC(=O)[C@@H](N)Cc1c[nH]cn1)[C@@H](C)O)[C@@H](C)O)C(C)C)C(=O)NCC(=O)N[C@@H](CCC(N)=O)C(=O)N[C@@H](C)C(=O)N[C@@H](C)C(=O)N[C@@H](CCCCN)C(=O)N[C@@H](CCC(=O)O)C(=O)N[C@@H](Cc1ccccc1)C(=O)N[C@H](C(=O)N[C@@H](C)C(=O)N[C@@H](Cc1c[nH]c2ccccc12)C(=O)N[C@@H](CC(C)C)C(=O)N[C@H](C(=O)N[C@@H](CCCCN)C(=O)NCC(=O)N[C@@H](CCCNC(=N)N)C(=O)NCC(=O)O)C(C)C)[C@@H](C)CC [compound 15] | slower degradation rates

same assay, conditions: DPP IV 0.1 mg/ml, pH 7.0, in the presence of human serum albumin (2%), peptide 1 mg/ml, 37 °C; GLP-1 (7–37) ELISA

Structure (SMILES) | detectability of full-length peptide at 24 h
CCCCCCCCCCCCCCCCNC(=O)CC[C@H](NC(=O)[C@H](CC(C)C)NC(=O)[C@H](Cc1ccc(O)cc1)NC(=O)[C@H](CO)NC(=O)[C@H](CO)NC(=O)[C@@H](NC(=O)[C@H](CC(=O)O)NC(=O)[C@H](CO)NC(=O)[C@@H](NC(=O)[C@H](Cc1ccccc1)NC(=O)[C@@H](NC(=O)CNC(=O)[C@H](CCC(=O)O)NC(=O)[C@H](C)NC(=O)[C@@H](N)Cc1c[nH]cn1)[C@@H](C)O)[C@@H](C)O)C(C)C)C(=O)NCC(=O)N[C@@H](CCC(N)=O)C(=O)N[C@@H](C)C(=O)N[C@@H](C)C(=O)N[C@@H](CCCCN)C(=O)N[C@@H](CCC(=O)O)C(=O)N[C@@H](Cc1ccccc1)C(=O)N[C@H](C(=O)N[C@@H](C)C(=O)N[C@@H](Cc1c[nH]c2ccccc12)C(=O)N[C@@H](CC(C)C)C(=O)N[C@H](C(=O)N[C@@H](CCCCN)C(=O)NCC(=O)N[C@@H](CCCNC(=N)N)C(=O)NCC(=O)O)C(C)C)[C@@H](C)CC [compound 15] | still detectable at 24 h
